Measured values reported in the supplement of paper PMC10307832.

Tests used:
Test in all cases: relative viability (nuclei count vs DMSO), 5 days (fraction); higher = more cells survive
[1] = compound: c1ccc2c(CCNc3ccc(Nc4ccncc4)cc3)c[nH]c2c1 [Serdemetan] + CC(C)C[C@H](NC(=O)[C@H](Cc1ccccc1)NC(=O)c1cnccn1)B(O)O [Bortezomib] (partner 0.002 µM)
How it was run: (§1)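 Lung cancer cell lines in 1536-well plates were dosed by pin tool the day after seeding, either with one drug alone or with a fixed anchor-drug dose plus five library-drug doses (not always all listed) in √10 steps. After 5 days, cells were fixed and their nuclei stained in one step (final 0.05% Triton X-100, 1% formaldehyde, 1 ug/ml Hoechst), then counted on 4× images. Relative viability is the nuclei count in treated wells divided by that in vehicle wells. Values are medians of duplicate plates.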

[2] = compound: C1CC(C2=C(C1)C3=C(N2)C=CC(=C3)Cl)C(=O)N [Selisistat] + Cc1nc(NC(=O)N2CCC[C@H]2C(N)=O)sc1-c1ccnc(C(C)(C)C(F)(F)F)c1 [Alpelisib] (partner 2 µM)
How it was run: as §1

[3] = compound: C1CC(C2=C(C1)C3=C(N2)C=CC(=C3)Cl)C(=O)N [Selisistat]
How it was run: (§2)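 Following overnight incubation at 37 °C, lung cancer cell lines in 1536-well plates were pinned with five library-drug doses (not always all listed) in √10 steps on vehicle-anchored plates. The cells then spent 5 days without medium change before a combined fix, permeabilisation and Hoechst stain, 4× imaging and MetaXpress nuclear counts. Viability is the treated-to-vehicle ratio of nuclei, taken as the median across plates. Only plates with control CV below 25% and at least one doubling passed.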

[4] = compound: c1ccc2c(CCNc3ccc(Nc4ccncc4)cc3)c[nH]c2c1 [Serdemetan]
How it was run: as §2

Row | Cell Line | relative viability ([1]; first compound 0.04 µM) | relative viability ([1]; first compound 0.1265 µM) | relative viability ([1]; first compound 0.4 µM) | relative viability ([1]; first compound 1.265 µM) | relative viability ([1]; first compound 4 µM) | relative viability ([2]; first compound 0.4 µM) | relative viability ([2]; first compound 1.265 µM) | relative viability ([2]; first compound 4 µM) | relative viability ([2]; first compound 12.65 µM) | relative viability ([2]; first compound 40 µM) | relative viability ([3]; 0.4 µM) | relative viability ([3]; 1.265 µM) | relative viability ([3]; 4 µM) | relative viability ([3]; 12.65 µM) | relative viability ([3]; 40 µM) | relative viability ([4]; 0.04 µM) | relative viability ([4]; 0.1265 µM) | relative viability ([4]; 0.4 µM) | relative viability ([4]; 1.265 µM) | relative viability ([4]; 4 µM)
1 | NCI-H1975 | 0.346 | 0.378 | 0.377 | 0.313 | 0.314 | 0.656 | 0.553 | 0.588 | 0.604 | 0.579 | 0.952 | 0.839 | 0.763 | 0.825 | 0.836 | 0.934 | 0.978 | 0.919 | 0.937 | 0.993
2 | CAL-12T |  | 1.11 |  | 0.931 | 1.04 | 1.29 | 1.07 | 1.14 | 1.16 | 1.19 | 0.964 | 0.987 | 0.747 | 0.881 | 1 | 0.967 | 1.05 | 1.01 | 0.932 | 0.927
3 | NCI-H1623 |  |  |  |  |  |  |  |  |  |  | 1.08 | 1.08 | 0.843 | 1.09 | 1.18 | 0.969 | 1.02 | 0.961 | 0.815 | 0.713
4 | HCC-44 | 0.854 | 0.849 | 0.827 | 0.621 | 0.85 | 0.86 | 0.874 | 0.853 | 0.846 | 0.9 | 1.01 | 0.738 | 1.08 | 0.982 | 1.06 | 0.935 | 0.982 | 0.944 | 0.854 | 0.962
5 | EKVX | 1.09 | 1 | 0.857 | 0.911 | 1.25 | 0.949 | 0.855 | 0.723 | 0.853 | 0.878 | 1.05 | 0.993 | 0.788 | 0.902 | 0.92 | 0.987 | 0.987 | 0.647 | 0.627 | 0.891
6 | NCI-H1651 | 0.805 | 0.938 | 0.904 | 0.501 | 0.356 | 0.945 | 0.905 | 0.944 | 0.894 | 1.01 | 0.995 | 0.958 | 0.893 | 0.924 | 0.949 | 0.847 | 0.899 | 0.832 | 0.507 | 0.399
7 | NCI-H1944 |  |  |  |  |  | 0.92 | 0.779 |  | 0.729 | 0.823 | 1.11 | 0.92 |  | 0.858 | 0.975 | 0.95 | 0.918 | 0.858 | 0.469 | 0.738
8 | NCI-H358 |  |  |  |  |  | 0.865 | 0.942 |  | 0.932 | 0.912 | 0.989 | 0.925 |  | 1.06 | 0.976 | 0.897 | 0.905 | 0.901 | 0.81 | 0.798
9 | NCI-H1793 |  |  |  |  |  | 0.859 | 0.625 |  | 0.958 | 0.834 | 0.968 | 0.846 |  | 0.956 | 0.942 | 1.03 | 0.873 | 0.562 | 0.471 | 0.572
10 | ChaGo-K-1 |  | 1.14 | 0.697 | 0.775 | 0.849 |  |  |  |  |  | 1.02 | 0.942 | 0.8 | 0.866 | 0.97 | 0.964 | 0.95 | 0.873 | 0.624 | 0.529
11 | NCI-H522 |  |  |  |  |  |  |  |  |  |  | 0.899 | 0.964 | 0.763 | 0.806 | 0.885 | 1.03 | 0.938 | 0.943 | 0.605 | 1.09
12 | NCI-H1650 | 0.196 | 0.223 | 0.188 | 0.171 | 0.188 |  |  |  |  |  | 0.823 | 0.844 | 0.829 | 0.905 | 0.911 | 0.916 | 0.892 | 0.788 | 0.759 | 0.688
13 | NCI-H1648 |  |  |  |  |  |  |  |  |  |  | 0.769 | 0.787 | 1.04 | 1.19 | 1.19 |  | 1.07 | 0.924 | 0.472 | 0.358
14 | SK-MES-1 |  |  |  |  |  | 1.01 | 0.951 | 0.836 | 0.838 | 0.896 | 1.09 | 0.986 | 0.955 | 0.93 | 0.976 | 0.959 | 1.01 | 0.971 | 0.831 | 0.741
15 | NCI-H2342 |  |  |  |  |  |  |  |  |  |  | 1.06 | 0.881 | 0.908 | 0.94 | 0.928 | 1.17 | 1.13 | 1.08 | 0.84 | 0.69
16 | SW 900 |  |  |  |  |  |  |  |  |  |  | 1 | 0.801 | 0.656 | 0.846 | 0.858 | 0.876 | 0.941 | 0.926 | 0.547 | 0.666
17 | LK-2 |  |  |  |  |  | 1.05 | 0.968 | 0.981 | 0.989 | 1.01 | 0.963 | 0.891 | 1 | 0.913 | 1.02 | 0.999 | 1.02 | 1.01 | 0.848 | 0.887
18 | NCI-H1395 |  |  |  |  |  | 1.07 | 1.01 | 0.977 | 0.864 | 0.996 | 1.02 | 0.883 | 0.701 | 0.863 | 0.9 | 0.869 | 1.02 | 0.927 | 0.804 | 0.61
19 | A549 |  |  |  |  |  | 0.976 | 0.841 | 0.652 | 0.843 | 0.901 | 1.05 | 0.901 | 0.952 | 0.898 | 0.982 | 0.907 | 0.938 | 0.932 | 0.778 | 0.59
20 | NCI-H2170 |  |  |  |  |  | 0.885 | 0.805 | 0.815 | 0.771 | 0.881 | 1.02 | 0.978 | 0.956 | 1.03 | 1.1 | 1 | 1.02 | 1 | 0.972 | 0.985
